For data set [1], the system named is adriamycin-resistant S 180 mouse sarcoma cells. In words: Cytotoxicity in proliferating adriamycin-resistant S 180 mouse sarcoma cells (MTT, 6 days) in the absence or presence of adriamycin. It is filed as cell-based. As to conditions: S-180, 144 h. On the procedure: was tested on cells resistant to adriamycin as follows:
Proliferating, adriamycin-resistant S 180 mouse sarcoma cells were cultivated for six days in the presence of various concentrations of test substances. Concentrations of the test substances with a cytotoxic or cytostatic effect were indicated by reduced cell growth or by the cells dying off. The end point of the assay is the number of living cells per culture which is determined indirectly, making use of the property of vital cells to reduce the dye MTT [=3-(4,5-dimethylthiazol-2-yl)-2,5-diphenyltetrazoliumbromide] to coloured formazane. The IC50 denotes the concentration of a test substance which reduces the number of vital cells per culture vessel to 50% of the untreated control. […] Therefore, two IC50 values are obtained for each test substance, one in the presence of adriamycin (IC50 ADR), the other in the absence of adriamycin (IC50). The difference in the logarithms (to the base ten) of the two IC50 values: Δ=lgIC50-lgIC50 ADR is a measure of the increase in the cytotoxicity of the test substance brought about by adriamycin.
Exponentially growing adriamycin-resistant or adriamycin-sensitive S 180 cells were plated out in 96-well flat-bottomed microtitre dishes at a rate of 2000 cells per well in 100 μl of growth medium (RPMI-1640 containing 10% foetal calf serum). The culture dishes were incubated in an incubator at 37° C., 5% CO2 at 100% relative humidity. After 24 hours, 50 μl of growth medium containing various concentrations of test substance and 50 μl of growth medium with or without adriamycin were added to each well. Following a further 6-day cultivation period, 50 μl of tetrazolium salt solution [5 mg of 3-(4,5-dimethylthiazol-2-yl)-2,5-diphenyl-tetrazoliumbromide per ml of phosphate-buffered saline solution, diluted 1:5 (v/v) with RPMI-1640 before use] were pipetted into each well. After […] incubation the culture medium was carefully suction filtered and the formazane formed intracellularly was solubilised with 150 μl of dimethylsulphoxide per well. The dishes were briefly shaken and the optical density was measured at 570 nm with a photometer such as a Dynatech MR-600 apparatus. The formation of the coloured formazane by reduction of the tetrazolium salt is proportional to the number of living cells. The averages of three measurements were used to calculate the IC50 values (dilution stage: 1:2).

Data set [2] in a line: Tolerability after i.v. administration in mice. It is filed as in vivo. As to conditions: 100 mg/kg i.v. in mice.
Where [3] appears, read: Adriamycin 0 ng/ml (absence of adriamycin), read-out: IC50.
Setting [4] is: in presence of Adriamycin 100 ng/ml, read-out: IC50 (IC50 ADR).

Each structure is given as a SMILES string. Read-outs that look alike come from different tables or passages of the source.

`CN(Cc1ccccc1)c1ncnc2c(N3CCOCC3)nc(N3CCC(N(C)C)CC3)nc12` [Substance A, 2-[4-(N,N-dimethylamino)-piperidino]-8-(N-benzyl-N-methyl-amino)-4-morpholino-pyrimido [5,4-d]pyrimidine]: the IC50 in data set [1] (setting [3]) worked out at 1 mg/L; in data set [1] (setting [4]), 0.3 mg/L.

In the case of `COC(=O)NC1CCN(c2nc(N3CCOCC3)c3ncnc(N(C)Cc4ccccc4)c3n2)CC1` [Substance B], the IC50 in data set [1] (setting [3]) worked out at 10 mg/L; in data set [1] (setting [4]), 1 mg/L.

As to `CN(Cc1ccccc1)c1ncnc2c(N3CCCCC3)nc(N3CCC(N(C)C)CC3)nc12` [Substance C, 2-[4-(N,N-dimethylamino)-piperidino]-8-(N-benzyl-N-methyl-amino)-4-piperidino-pyrimido [5,4-d]pyrimidine], the IC50 turned out to be 2 mg/L in data set [1] (setting [3]) and 0.3 mg/L in data set [1] (setting [4]).

For the molecule `CN(Cc1ccccc1)c1ncnc2c(N3CCOCC3)nc(N3CCC(N4CCCCC4)CC3)nc12` [Substance D, 8-(N-benzyl-N-methyl-amino)-2-[4-(piperidino)-piperidin-1-yl]-4-morpholino-pyrimido [5,4-d]pyrimidine], the concentration for half-maximal inhibition (IC50) in data set [1] (setting [3]) was 3 mg/L; in data set [1] (setting [4]), 0.3 mg/L.

For the molecule `CN(C)CC1CCN(c2nc(N3CCOCC3)c3ncnc(N(C)Cc4cccc5ccccc45)c3n2)CC1` [Substance E, 2-[4-(N,N-dimethylaminomethyl)-piperidino]-8-[N-(napth-1-yl-methyl)-N-methyl-amino]-4-morpholino-pyrimido [5,4-d]pyrimidine], the values for the 50% inhibitory concentration (IC50) in data set [1] (setting [3]) and in data set [1] (setting [4]) were 3 mg/L and 0.1 mg/L, respectively.

As to `CN(Cc1ccccc1)c1nc(N2CCC(N(C)C)CC2)nc2c(N3CCOCC3)ncnc12` [Substance F, 4-(N-benzyl-methyl-amino)-2-[4-(N,N-dimethylamino)-piperidino]-8-morpholino-pyrimido [5,4-d]pyrimidine], the IC50 came out at 3 mg/L in data set [1] (setting [3]) and 0.3 mg/L in data set [1] (setting [4]).

Regarding `COc1cc2c(cc1OC)CN(c1ncnc3c(N4CCOCC4)nc(N4CCC(N(C)C)CC4)nc13)CC2` [Substance G, 2-[4-(N,N-dimethylamino)-piperidino]-8-(6,7-dimethoxy-1,2,3,4-tetrahydro-isoquinolin-2-yl)-4-morpholino-pyrimido [5,4-d]pyrimidine], the IC50 in data set [1] (setting [3]) was found to be 3 mg/L; in data set [1] (setting [4]) it was 0.1 mg/L. The “toxic side effects / tolerability” value in data set [2] is “did not lead to any detectable toxic side effects”.

In the case of `CN(Cc1cccc2ccccc12)c1ncnc2c(N3CCOCC3)nc(N3CCC(N(C)C)CC3)nc12` [Substance H, 2-[4-(N,N-dimethylamino)-piperidino]-8-[N-(naphth-1-yl-methyl)-N-methyl-amino]-4-morpholino-pyrimido [5,4-d]pyrimidine], the results for the IC50 in data set [1] (setting [3]) and in data set [1] (setting [4]) were 3 mg/L and 0.1 mg/L, respectively.

Regarding `CN(Cc1ccccc1)c1nc(N2CCC(NCC(c3ccccc3)c3ccccc3)CC2)nc2c(N3CCOCC3)ncnc12` [Substance I, 2-[4-(2,2-diphenylethylamino)-piperidino]-4-(N-benzyl-N-methyl-amino)-8-morpholino-pyrimido-[5,4-d]pyrimidine], the IC50 in data set [1] (setting [3]) was 10 mg/L; in data set [1] (setting [4]), 0.3 mg/L.

With `CN(C)C1CCN(c2nc(N3CCOCC3)c3ncnc(N(CCCNC(=O)c4ccccc4)Cc4ccccc4)c3n2)CC1` [Substance J, 2-[4-(N, N-dimethylamino)-piperidino]-8-[N-benzyl-N-(3-benzoylaminopropyl)-amino]-4-morpholino-pyrimido-[5,4-d]pyrimidine], the IC50 in data set [1] (setting [3]) stood at 3 mg/L; in data set [1] (setting [4]) it was 0.1 mg/L.

Take `CN(Cc1cccc2ccccc12)c1nc(N2CCC(N(C)C)CC2)nc2c(N3CCOCC3)ncnc12` [Substance K, 2-[4-(N,N-dimethylamino)-piperidino]-4-[N-(naphth-1-yl-methyl)-N-methyl-amino]-8-morpholino-pyrimido-[5,4-d]pyrimidine]: the IC50 in data set [1] (setting [3]) is 3 mg/L; in data set [1] (setting [4]), 0.1 mg/L.

Source of the values: patent US5618814A, “Trisubstituted pyrimido [5,4-d] pyrimidines for modulating multi-drug resistance and pharmaceutical compositions containing these compounds” (Dr. Karl Thomae GmbH, priority 1993, dated 1997).
